Results as given in patent US20030104945A1, “2,4-Diamino-1,3,5-triazines, their preparation, and their use as herbicides and plant growth regulators” (priority 2001, published 2003).

What was measured:
Type in all cases: in vivo
[1] = test system: harmful plants such as Stellaria media, Lolium multiflorum, Amaranthus retroflexus, Sinapis alba, Avena sativa and Setaria viridis; test: Pre-emergence herbicidal action (greenhouse pot test); conditions: application rate of 1 kg or less active substance per hectare, scored after 3 to 4 weeks vs untreated controls
From the text: Seeds and rhizome sections of monocotyledonous and dicotyledonous harmful plants are placed in sandy loam in plastic pots and covered with soil. The compounds according to the invention which are formulated in the form of wettable powders or emulsion concentrates at various rates, are then applied to the surface of the covering soil as aqueous suspension or emulsion at an application rate of 600 to 800 l of water per ha (converted).
After the treatment, the pots are placed in the greenhouse and kept under good growth conditions for the weeds. Visual scoring of the plant damage or the adverse effect on emergence is done after the test plants have emerged after an experimental period of 3 to 4 weeks in comparison with untreated controls.

[2] = test system: harmful plants such as Sinapis alba, Echinochloa crus-galli, Lolium multiflorum, Stellaria media, Cyperus iria, Amaranthus retroflexus, Setaria viridus and …; test: Post-emergence herbicidal action (greenhouse pot test); conditions: three-leaf stage, application rate of 1 kg and less of active substance per hectare, scored after approx. 3 to 4 weeks vs untreated controls
Protocol: Seeds or rhizome sections of monocotyledonous and dicotyledonous weeds are placed in sandy loam soil in plastic pots, covered with soil and grown in the greenhouse under good growth conditions. Three weeks after sowing, the experimental plants are treated at the three-leaf stage. The compounds according to the invention, which are formulated as wettable powders or as emulsion concentrates, are sprayed at various rates onto the green plant organs at an application rate of 600 to 800 l of water per ha (converted). After the experimental plants have remained in the greenhouse for approx. 3 to 4 weeks under optimal growth conditions, the effect of the compositions is scored visually in comparison with untreated controls. The substances according to the invention also have a good herbicidal action against a broad spectrum of economically important grass weeds and broad-leaved weeds when applied post-emergence.

[3] = test system: harmful plants which are typical of rice crops such as, for example, Cyperus monti, Echinochloa crus-galli and Sagittaria pygmaea; test: Activity against harmful plants in rice (paddy rice conditions); conditions: poured into paddy water at various dosages; scored about three weeks after application vs untreated controls; also: test concentration or dose not given here
Protocol: Transplanted and seeded rice and typical grass weeds and broad-leaved weeds in rice crops are grown in the greenhouse under paddy rice conditions (depth of the paddy water: 2-3 cm) in sealed plastic pots until they have reached the three-leaf stage (Echinochloa crus-galli 1.5-leaf). They are then treated with the compounds according to the invention. To this end, the formulated active substances are suspended, dissolved or emulsified in water and the product is poured into the paddy water of the test plants at various dosages. After the treatment has been carried out thus, the test plants are placed in the greenhouse under optimal growth conditions and kept like this over the entire experimental period.
About three weeks after application, the evaluation is carried out by is of visually scoring the plant damage in comparison with untreated controls.

CC(Nc1nc(N)nc(C(C)(C)F)n1)[C@@H]1C[C@H]1c1ccccc1 (relative stereo) [Example 1-1]
very good herbicidal activity: herbicidal activity, visual scoring of plant damage or adverse effect on emergence [1] | herbicidal activity, visual scoring [2] | herbicidal activity, visual scoring of plant damage [3]

CC(F)c1nc(N)nc(NC(C)[C@@H]2C[C@H]2c2ccccc2)n1 (relative stereo) [Example 1-2, 2-Amino-4-(1-fluoroethyl)-6-[1-(trans-2-phenylcyclopropyl)-1-ethylamino]-1,3,5-triazine]
very good herbicidal activity: herbicidal activity, visual scoring of plant damage or adverse effect on emergence [1] | herbicidal activity, visual scoring [2] | herbicidal activity, visual scoring of plant damage [3]

CCC(F)c1nc(N)nc(NC(C)[C@@H]2C[C@H]2c2ccccc2)n1 (relative stereo) [Example 1-3]
very good herbicidal activity: herbicidal activity, visual scoring of plant damage or adverse effect on emergence [1] | herbicidal activity, visual scoring [2] | herbicidal activity, visual scoring of plant damage [3]

CC(C)c1nc(N)nc(NC(C)[C@@H]2C[C@H]2c2ccccc2)n1 (relative stereo) [Example 1-4]
very good herbicidal activity: herbicidal activity, visual scoring of plant damage or adverse effect on emergence [1] | herbicidal activity, visual scoring [2] | herbicidal activity, visual scoring of plant damage [3]

CCc1nc(N)nc(NC(C)[C@@H]2C[C@H]2c2ccccc2)n1 (relative stereo) [Example 1-6]
very good herbicidal activity: herbicidal activity, visual scoring of plant damage or adverse effect on emergence [1] | herbicidal activity, visual scoring [2] | herbicidal activity, visual scoring of plant damage [3]

CCC(Nc1nc(N)nc(C(C)(C)F)n1)[C@@H]1C[C@H]1c1ccccc1 (relative stereo) [Example 2-1, 2-Amino-4-(1-fluoro-1-methylethyl)-6-[1-(trans-2-phenylcyclopropyl)prop-1-ylamino]-1,3,5-triazine]
very good herbicidal activity: herbicidal activity, visual scoring of plant damage or adverse effect on emergence [1] | herbicidal activity, visual scoring [2] | herbicidal activity, visual scoring of plant damage [3]

CCC(Nc1nc(N)nc(C(C)C)n1)[C@@H]1C[C@H]1c1ccccc1 (relative stereo) [Example 2-2]
very good herbicidal activity: herbicidal activity, visual scoring of plant damage or adverse effect on emergence [1] | herbicidal activity, visual scoring [2] | herbicidal activity, visual scoring of plant damage [3]

CCC(Nc1nc(N)nc(C(C)F)n1)[C@@H]1C[C@H]1c1ccccc1 (relative stereo) [Example 2-3]
very good herbicidal activity: herbicidal activity, visual scoring of plant damage or adverse effect on emergence [1] | herbicidal activity, visual scoring [2] | herbicidal activity, visual scoring of plant damage [3]

CCC(F)c1nc(N)nc(NC(CC)[C@@H]2C[C@H]2c2ccccc2)n1 (relative stereo) [Example 2-8]
very good herbicidal activity: herbicidal activity, visual scoring of plant damage or adverse effect on emergence [1] | herbicidal activity, visual scoring [2] | herbicidal activity, visual scoring of plant damage [3]

CC(C)(F)c1nc(N)nc(NC(C2CC2)[C@@H]2C[C@H]2c2ccccc2)n1 (relative stereo) [Example 3-1]
very good herbicidal activity: herbicidal activity, visual scoring of plant damage or adverse effect on emergence [1] | herbicidal activity, visual scoring [2] | herbicidal activity, visual scoring of plant damage [3]

CC(C)c1nc(N)nc(NC(C2CC2)[C@@H]2C[C@H]2c2ccccc2)n1 (relative stereo) [Example 3-2]
very good herbicidal activity: herbicidal activity, visual scoring of plant damage or adverse effect on emergence [1] | herbicidal activity, visual scoring [2] | herbicidal activity, visual scoring of plant damage [3]

CC(F)c1nc(N)nc(NC(C2CC2)[C@@H]2C[C@H]2c2ccccc2)n1 (relative stereo) [Example 3-3]
very good herbicidal activity: herbicidal activity, visual scoring of plant damage or adverse effect on emergence [1] | herbicidal activity, visual scoring [2] | herbicidal activity, visual scoring of plant damage [3]

CCC(F)c1nc(N)nc(NC(C2CC2)[C@@H]2C[C@H]2c2ccccc2)n1 (relative stereo) [Example 3-4]
very good herbicidal activity: herbicidal activity, visual scoring of plant damage or adverse effect on emergence [1] | herbicidal activity, visual scoring [2] | herbicidal activity, visual scoring of plant damage [3]

CC(F)c1nc(N)nc(NC(C2CC2)[C@@H]2C[C@H]2c2cc(Cl)cc(Cl)c2)n1 (relative stereo) [Example 3-26]
very good herbicidal activity: herbicidal activity, visual scoring of plant damage or adverse effect on emergence [1] | herbicidal activity, visual scoring [2] | herbicidal activity, visual scoring of plant damage [3]

CCC(F)c1nc(N)nc(NC(C2CC2)[C@@H]2C[C@H]2c2cc(Cl)cc(Cl)c2)n1 (relative stereo) [Example 3-27]
very good herbicidal activity: herbicidal activity, visual scoring of plant damage or adverse effect on emergence [1] | herbicidal activity, visual scoring [2] | herbicidal activity, visual scoring of plant damage [3]

CC(C)c1nc(N)nc(NC(C2CC2)[C@@H]2C[C@H]2c2cc(Cl)cc(Cl)c2)n1 (relative stereo) [Example 3-28]
very good herbicidal activity: herbicidal activity, visual scoring of plant damage or adverse effect on emergence [1] | herbicidal activity, visual scoring [2] | herbicidal activity, visual scoring of plant damage [3]

CC(C)(F)c1nc(N)nc(NC(C2CCC2)[C@@H]2C[C@H]2c2ccccc2)n1 (relative stereo) [Example 4-1]
very good herbicidal activity: herbicidal activity, visual scoring of plant damage or adverse effect on emergence [1] | herbicidal activity, visual scoring [2] | herbicidal activity, visual scoring of plant damage [3]

CCC(F)(CC)c1nc(N)nc(NC(C2CCC2)[C@@H]2C[C@H]2c2ccccc2)n1 (relative stereo) [Example 4-2]
very good herbicidal activity: herbicidal activity, visual scoring of plant damage or adverse effect on emergence [1] | herbicidal activity, visual scoring [2] | herbicidal activity, visual scoring of plant damage [3]

CC(F)c1nc(N)nc(NC(C2CCC2)[C@@H]2C[C@H]2c2ccccc2)n1 (relative stereo) [Example 4-3]
very good herbicidal activity: herbicidal activity, visual scoring of plant damage or adverse effect on emergence [1] | herbicidal activity, visual scoring [2] | herbicidal activity, visual scoring of plant damage [3]

CCC(F)c1nc(N)nc(NC(C2CCC2)[C@@H]2C[C@H]2c2ccccc2)n1 (relative stereo) [Example 4-4]
very good herbicidal activity: herbicidal activity, visual scoring of plant damage or adverse effect on emergence [1] | herbicidal activity, visual scoring [2] | herbicidal activity, visual scoring of plant damage [3]

CC(C)c1nc(N)nc(NC(C2CCC2)[C@@H]2C[C@H]2c2ccccc2)n1 (relative stereo) [Example 4-27]
very good herbicidal activity: herbicidal activity, visual scoring of plant damage or adverse effect on emergence [1] | herbicidal activity, visual scoring [2] | herbicidal activity, visual scoring of plant damage [3]

CC(C)(F)c1nc(N)nc(NC(C2CCC2)[C@@H]2C[C@H]2c2cccc(Cl)c2)n1 (relative stereo) [Example 4-28]
very good herbicidal activity: herbicidal activity, visual scoring of plant damage or adverse effect on emergence [1] | herbicidal activity, visual scoring [2] | herbicidal activity, visual scoring of plant damage [3]
